In data set [1] the test system is A2780 ovarian cancer cells. As to the kind of experiment: In vitro growth inhibition assay (SRB), A2780. Particulars: A2780, 24 h exposure, 72 h recovery. It is filed as cell-based. On the procedure: Dulbecco's modified Eagle's medium (DMEM) cell culture media, penicillin/streptomycin, foetal bovine serum, L-glutamine, phosphate-buffered saline (PBS) solution, and trypsin/EDTA were all purchased from Thermo Fisher (Loughborough, UK). DMEM was supplemented with 10% foetal bovine serum, 1% penicillin/streptomycin, and 2 mM L-glutamine. Cancer cell lines (A2780 and A549) were purchased from the European Collection of Cell Cultures (Salisbury, UK). Cell cultures were grown in T-75 or T-175 culture flasks as adherent monolayers. The cells were passaged two to three times per week whenever confluence reached 80–90%, using 0.25% trypsin/EDTA. Cell cultures were stored in an incubator at 37°C with a 5% CO2 humidified atmosphere.
Five thousand A2780 or A549 cells were seeded per well in 96-well plates. The cells were pre-incubated in drug-free media at 37°C for 48 h before adding a range of concentrations (0.01–100 µM) of the complexes to be tested. Typically, the complex was dissolved in dimethyl sulfoxide (DMSO) at 2 mM concentration, and then diluted with cell culture medium to give a 100 µM stock solution with 5% (v/v) DMSO. […] Absorbance measurements of the solubilized dye (Thermo Scientific Multiskan FC with SkanIt software 4.1 for Windows using a 470 nm filter) allowed the determination of viable treated cells compared to untreated controls. […]

Data set [2] in a line: Comparative maximum aqueous solubility study (ICP-OES). Format: physicochemical. The conditions noted are these: doubly deionized water, 24 h shaking, ambient 18–20°C, mean ± SD of N = 3. On the procedure: One to five milligrams of FY26⋅PF6 or FY26⋅I, and 180 mg of FY26⋅Cl were dispensed into Falcon tubes in triplicates, then 1 ml of doubly deionized water (DDIW) was added. The Falcon tubes were placed on a Vibrax VXB basic shaker (Sigma-Aldrich, Dorset, UK) for 24 h at a speed of […] (ambient temperature 18–20°C), and were checked at intervals (further solids were added if total saturation appeared to occur). The samples were filtered through syringe filters (PTFE, 0.45 µm, 4 mm) to remove any undissolved solids. The concentrations of Os in the solutions were measured using inductively coupled plasma-optical emission spectroscopy (ICP-OES) (Agilent, Stockport, UK).
Analyses of FY26 solutions were carried out on a Perkin-Elmer (optical emission spectrometer) Optima 5300 DV instrument. All samples and standards were prepared fresh on the day in DDIW with distilled HNO3 (3.2%), thiourea (5 mM), and ascorbic acid (0.1 g/l). The osmium standard was diluted to the following concentrations for the calibration curve: 0, 25, 50, 100, 200, 400, 600, 800, and 1000 ppb. The samples were diluted by serial dilutions of typically 1 in 10 until their concentrations fitted within the calibration range and % total dissolved solids were below 0.2%. Samples were prepared in triplicates and the Os optical emissions at 228.226 and 225.585 nm were detected and integrated.

Molecules are shown by their SMILES.

For `CN(C)c1ccc(N=Nc2ccccn2)cc1.Cc1ccc(C(C)C)cc1.[Cl-].[I-].[Os+2]` [FY26⋅Cl], the “difference in anticancer (antiproliferative) activity between X = Cl and X = PF6” value in data set [1] is recorded as “lack of any statistically significant difference”. Also, the maximum aqueous solubility in data set [2] is recorded as 215 (±10) mM.
